Measured values published in ChEMBL document CHEMBL1154782, “Discovery of Trp-His and His-Arg analogues as new structural classes of short antimicrobial peptides” (J Med Chem, 2009).
In brackets after ≈: the same amount, converted by molar mass. Where a SMILES comes first, the peptide text is derived from it. The star is where a group is joined. Boc = CC(C)(C)OC(=O)*; NHBn = c1ccc(CN*)cc1

What was measured:
Staphylococcus aureus [1] = experiment: Antibacterial activity against methicillin-resistant Staphylococcus aureus DSM 50128509 after 15 to 18 hrs under aerobic condition by modified broth microdilution method; type: functional
Staphylococcus aureus [2] = experiment: Antibacterial activity against methicillin-resistant Staphylococcus aureus DSM 50128509; type: functional, organism-based
[3] = system: Staphylococcus epidermidis; experiment: Antibacterial activity against methicillin-resistant Staphylococcus epidermidis DSM 50160384 after 15 to 18 hrs under aerobic condition by modified broth microdilution method; type: functional
Escherichia coli = experiment: Antibacterial activity against Escherichia coli ATCC 35218 after 15 to 18 hrs under aerobic condition by modified broth microdilution method; type: functional
Klebsiella pneumoniae = experiment: Antibacterial activity against Klebsiella pneumoniae ATCC 700603 after 15 to 18 hrs under aerobic condition by modified broth microdilution method; type: functional
Pseudomonas aeruginosa = experiment: Antibacterial activity against Pseudomonas aeruginosa ATCC 9027 after 15 to 18 hrs under aerobic condition by modified broth microdilution method; type: functional
Candida albicans = experiment: Antifungal activity against Candida albicans ATCC 10231 after 15 to 18 hrs under aerobic condition by modified broth microdilution method; type: functional
L929 = experiment: Cytotoxicity against mouse L929 cells up to 200 ug/mL after 5 days by MTT assay; type: cell-based; conditions: l929, 120 h
[4] = system: Staphylococcus epidermidis; experiment: Antibacterial activity against methicillin-resistant Staphylococcus epidermidis DSM 50160384; type: functional, organism-based

Structure (SMILES) | MIC (Staphylococcus aureus [1]) | IC50 (Staphylococcus aureus [2]) | MIC [3] | MIC (Escherichia coli) | MIC (Klebsiella pneumoniae) | MIC (Pseudomonas aeruginosa) | MIC (Candida albicans) | Activity (L929) | IC50 [4]
CC(C)c1nc(C[C@H](NC(=O)[C@H](Cc2c[nH]c3ccccc23)NC(=O)OC(C)(C)C)C(=O)NCc2ccccc2)c[nH]1 | 200 µg/mL (≈ 349 µM) | 10.3 µg/mL (≈ 17.9 µM) | > 200 µg/mL | > 200 µg/mL | > 200 µg/mL | > 200 µg/mL | > 200 µg/mL | Non-toxic | –
CC(C)(C)OC(=O)N[C@@H](Cc1c[nH]c2ccccc12)C(=O)N[C@@H](Cc1c[nH]c(C(C)(C)C)n1)C(=O)NCc1ccccc1 | > 200 µg/mL | – | > 200 µg/mL | > 200 µg/mL | > 200 µg/mL | > 200 µg/mL | > 200 µg/mL | Non-toxic | –
COC(=O)[C@H](Cc1c[nH]c(C(C)C)n1)NC(=O)[C@H](Cc1c[nH]c2ccccc12)NC(=O)OC(C)(C)C | > 200 µg/mL | – | > 200 µg/mL | > 200 µg/mL | > 200 µg/mL | > 200 µg/mL | > 200 µg/mL | Non-toxic | –
CC(C)(C)c1nc(C[C@H](N)C(=O)N[C@@H](CCCNC(=N)N)C(=O)NCc2ccccc2)c[nH]1 | 20 µg/mL (≈ 43.8 µM) | 4.18 µg/mL (≈ 9.15 µM) | 10 µg/mL (≈ 21.9 µM) | > 200 µg/mL | > 200 µg/mL | > 200 µg/mL | > 200 µg/mL | Non-toxic | 3.13 µg/mL (≈ 6.86 µM)
CC(C)(C)OC(=O)N[C@@H](Cc1c[nH]c(C2CCCCC2)n1)C(=O)N[C@@H](CCCNC(=N)N)C(=O)NCc1ccccc1 | 100 µg/mL (≈ 172 µM) | 12.1 µg/mL (≈ 20.7 µM) | 100 µg/mL (≈ 172 µM) | 200 µg/mL (≈ 343 µM) | > 200 µg/mL | > 200 µg/mL | > 200 µg/mL | Non-toxic | 18.4 µg/mL (≈ 31.6 µM)
CC(C)c1nc(C[C@H](NC(=O)[C@@H](N)Cc2c[nH]c3ccccc23)C(=O)NCc2ccccc2)c[nH]1 | > 200 µg/mL | – | 100 µg/mL (≈ 212 µM) | > 200 µg/mL | > 200 µg/mL | > 200 µg/mL | > 200 µg/mL | Non-toxic | 12.8 µg/mL (≈ 27.1 µM)
CC(C)(C)c1nc(C[C@H](NC(=O)[C@@H](N)Cc2c[nH]c3ccccc23)C(=O)NCc2ccccc2)c[nH]1 | > 200 µg/mL | – | 100 µg/mL (≈ 205 µM) | > 200 µg/mL | > 200 µg/mL | > 200 µg/mL | > 200 µg/mL | Non-toxic | 9.24 µg/mL (≈ 19 µM)
CC(C)(C)OC(=O)N[C@@H](Cc1c[nH]c2ccccc12)C(=O)N[C@@H](Cc1c[nH]c(C2CCCCC2)n1)C(=O)NCc1ccccc1 | 200 µg/mL (≈ 326 µM) | 31.7 µg/mL (≈ 51.7 µM) | 200 µg/mL (≈ 326 µM) | > 200 µg/mL | > 200 µg/mL | > 200 µg/mL | > 200 µg/mL | Non-toxic | 23.8 µg/mL (≈ 38.9 µM)
COC(=O)[C@H](CCCNC(=N)N)NC(=O)[C@H](Cc1c[nH]c(C(C)(C)C)n1)NC(=O)OC(C)(C)C | 100 µg/mL (≈ 208 µM) | 4.15 µg/mL (≈ 8.62 µM) | 200 µg/mL (≈ 415 µM) | > 200 µg/mL | > 200 µg/mL | > 200 µg/mL | > 200 µg/mL | Non-toxic | 20.1 µg/mL (≈ 41.8 µM)
CC(C)(C)OC(=O)N[C@@H](Cc1c[nH]cn1)C(=O)N[C@@H](CCCNC(=N)N)C(=O)NCc1ccccc1 (Boc-His-Arg-NHBn) | > 200 µg/mL | – | 100 µg/mL (≈ 200 µM) | > 200 µg/mL | > 200 µg/mL | > 200 µg/mL | > 200 µg/mL | Non-toxic | 8.79 µg/mL (≈ 17.6 µM)
COC(=O)[C@H](CCCNC(=N)N)NC(=O)[C@H](Cc1c[nH]cn1)NC(=O)OC(C)(C)C (Boc-His-Arg-OMe) | > 200 µg/mL | – | 100 µg/mL (≈ 235 µM) | > 200 µg/mL | > 200 µg/mL | > 200 µg/mL | > 200 µg/mL | Non-toxic | 5.07 µg/mL (≈ 11.9 µM)
CN[C@H](CC(C)C)C(=O)N[C@H]1C(=O)N[C@@H](CC(N)=O)C(=O)N[C@H]2C(=O)N[C@H]3C(=O)N[C@H](C(=O)N[C@H](C(=O)O)c4cc(O)cc(O)c4-c4cc3ccc4O)[C@H](O)c3ccc(c(Cl)c3)Oc3cc2cc(c3O[C@@H]2O[C@H](CO)[C@@H](O)[C@H](O)[C@H]2O[C@H]2C[C@](C)(N)[C@H](O)[C@H](C)O2)Oc2ccc(cc2Cl)[C@H]1O [VANCOMYCIN] | – | 0.14 µg/mL (≈ 0.0966 µM) | – | – | – | – | – | – | 0.14 µg/mL (≈ 0.0966 µM)
